Where a SMILES comes first, the peptide text is derived from it. Bridges are numbered along the chain shown (N, C = ends). [ ]: non-standard residue; d: D form. The star is where a group is joined. Succinimide(1-Et,3-yl) = CCN1C(=O)CC(*)C1=O; R8 = C=CCCCCCC[C@@](C)(N)C(=O)O; S5 = C=CCCC[C@](C)(N)C(=O)O; code Z = not defined here; Cbz = O=C(OCc1ccccc1)*; Aib = CC(C)(N)C(=O)O; CH2F = FC*

One series deals with 70Z3-C3 cells. Put plainly: Cellular uptake of BODIPY-labeled peptides by FACS. It is filed as cell-based. Particulars: 2 h incubation, flow cytometry. On the technique in general: A flow cytometer gives signals particle by particle.
Series [1] has as its system HLY1 (ABC-DLBCL, MALT1 independent). Put plainly: Cell death assay (CellTiter-Blue resazurin). The conditions noted are these: for cell death: HLY1, 7 h; for EC50: Homo sapiens. In kind it is cell-based, human. The method, then: (§1) The CellTiter-Blue® Cell Viability kit assay purchased from Promega was used to assess the cell death induced by NEMO stapled peptides in ABC- and GCB-DLBCL cell lines. […] Cells were considered 100% death when the fluorescence intensity value was the same as the one with the medium alone or with the cells treated with the cycloheximide protein synthesis inhibitor at 25 μM (Sigma Aldrich).
(§2) For each time point measurement 100 μl of cell samples were withdrawn at different incubation times (7 h, 24 h and 48 h) and subjected to resazurin assay for one hour at 37° C. in the CO2 incubator by adding and mixing for 10 sec 20 μl of resazurin. Fluorescence measurements were performed with a TECAN infinite F500 instrument at 560 nm excitation wavelength and 590 nm emission wavelength. Viability of cells at time 0 was determined just before adding compound and all experiments were performed in duplicate.
(§3) The percentage of cell death was calculated according to the following formula: (1−((RFUobs−blank)/(RFU100% viability−blank))*100), where RFUobs corresponds to the cells viability observed in the presence of compound, RFU100% viability, the initial cells viability and blank the background fluorescence measured using the medium alone.
(§4) The EC50 value was calculated by plotting the percentage of cell death as function of the compound concentration and fitting the experimental curve with the following formula: (A*P0)/(EC50+P0), where A is the amplitude of fluorescence, P0 is the peptide concentration.
(§5) To compare the inhibition efficiency of BA-UBI-SAHND306-Q313 with IKK inhibitors (MLN120B, MedChem Express) or IKKα/β inhibitor (TPCA1, R&D systems), 25,000 DLBCL cells (OCI-Ly3) were incubated for 7 h with an increasing concentration of IKK inhibitors ranging from 0 to 50 μM, and the amount of cell death was then determined using CellTiter-Blue® Cell Viability kit assay. For the MI-2 MALT1 inhibitor (Fontan et al., 2012, Cancer cell 22, 812-824), similar experiments were carried out in MALT dependent (OCI-Ly3) and independent (HLY1) DLBCL cells using a 0-25 μM range.

The subject of series [2] is OCI-Ly3 (ABC-DLBCL, MALT1 dependent). Put plainly: Cell death assay (CellTiter-Blue resazurin). In kind it is cell-based, human. On the procedure:
as §1, §2, §3, §4, §5
A general note: The colour change of resazurin is a common sign of viable cells or microbes.

A further series has as its system OCI-Ly7 (GCB-DLBCL). Put plainly: Cell death assay (CellTiter-Blue resazurin). It is filed as cell-based, human. The conditions noted are these: OCY-Ly7, no constitutive NF-κB activation. The method, then: as §1, §2
The percentage of cell death was calculated according to the following formula: (1−((RFUobs−blank)/(RFU100% viability−blank))*100), where RFUobs corresponds to the cells viability observed in the presence of compound, RFU100% viability, the initial cells viability and blank the background fluorescence measured using the medium alone. […]

The next series deals with OCI-Ly3 DLBCL cells. The series is described as follows: Protection from cell death induced by NEMO stapled inhibitor by apoptosis and necroptosis inhibitors. It is filed as cell-based, human. The conditions noted are these: OCY-Ly3 pre-treated with inhibitor, then A-UBI-SAHND306-Q313.
The nature of the next series: circular dichroism. Particulars: 10 mM sodium phosphate; pH 7; 1 °C; 50 uM. For orientation: Circular dichroism is widely used to follow secondary structure.
A further series deals with T1, IKKα (Homo sapiens, UniProt O15111).
T1 sequence (O15111 1-745): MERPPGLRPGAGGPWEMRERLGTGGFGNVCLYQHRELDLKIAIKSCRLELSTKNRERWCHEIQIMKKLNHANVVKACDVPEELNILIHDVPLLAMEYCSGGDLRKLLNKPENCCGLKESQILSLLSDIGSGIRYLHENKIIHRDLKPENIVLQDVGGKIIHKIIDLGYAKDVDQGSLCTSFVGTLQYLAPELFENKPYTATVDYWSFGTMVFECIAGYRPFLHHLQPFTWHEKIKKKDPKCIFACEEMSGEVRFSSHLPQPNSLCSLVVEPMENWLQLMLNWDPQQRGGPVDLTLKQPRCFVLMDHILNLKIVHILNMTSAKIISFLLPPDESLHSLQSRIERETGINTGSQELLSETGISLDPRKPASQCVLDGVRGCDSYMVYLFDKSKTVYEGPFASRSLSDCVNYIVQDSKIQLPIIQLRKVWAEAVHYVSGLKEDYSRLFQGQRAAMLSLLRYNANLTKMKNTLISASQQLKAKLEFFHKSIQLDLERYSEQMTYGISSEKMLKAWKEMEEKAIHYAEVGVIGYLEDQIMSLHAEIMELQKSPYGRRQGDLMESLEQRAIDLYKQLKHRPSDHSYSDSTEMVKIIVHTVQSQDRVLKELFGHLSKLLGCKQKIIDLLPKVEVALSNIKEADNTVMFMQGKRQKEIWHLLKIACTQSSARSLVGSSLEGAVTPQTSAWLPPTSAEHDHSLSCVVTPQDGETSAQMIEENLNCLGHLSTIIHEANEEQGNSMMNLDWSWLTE
The conditions noted are these: reported; cited from earlier work.

Protocol for OCI-Ly3 DLBCL cells: Ferrostatin-1, an inhibitor of ferroptosis (Sigma Aldrich) was used at 25 μM, the mixture of pepstatin-A and E64D (Sigma Aldrich), inhibitors of lysosomal cathepin D and cathepsin B, respectively, at 25 μM each and Cyclosporin A (Sigma Aldrich), a CypD inhibitor, at 25 μM. In all experiments, the effect of different DMSO concentration on cell viability was measured and taken into account, and fluorescence background was measured using cell free medium containing inhibitors.

Take `CC[C@H](C)[C@H](NC(=O)[C@H](CCCCN)NC(=O)[C@@H](NC(=O)[C@H](CCC(N)=O)NC(=O)[C@H](CCCNC(=N)N)NC(=O)[C@H](CSC1CC(=O)N(CC)C1=O)NC(C)=O)[C@@H](C)CC)C(=O)N[C@@H](Cc1c[nH]c2ccccc12)C(=O)N[C@@H](Cc1ccccc1)C(=O)N[C@@H](CCC(N)=O)C(=O)N[C@@H](CC(N)=O)C(=O)N[C@@H](CCCNC(=N)N)C(=O)N[C@@H](CCCNC(=N)N)C(=O)N[C@@H](CCSC)C(=O)N[C@@H](CCCCN)C(=O)N[C@@H](Cc1c[nH]c2ccccc12)C(=O)N[C@@H](CCCCN)C(=O)N[C@@H](CCCCN)C(=O)N[C@@H](CC(C)C)C(=O)N[C@@H](CCCCN)C(=O)N[C@@H](C)C(=O)N[C@@H](CCC(N)=O)C(=O)N[C@@H](C)C(=O)N[C@]1(C)CCCCCCC=CCCC[C@@](C)(C(=O)N[C@@H](C)C(=O)N[C@@H](CCC(=O)O)C(=O)N[C@@H](CCCNC(=N)N)C(=O)N[C@@H](Cc2c[nH]cn2)C(=O)N[C@@H](C)C(=O)N[C@@H](CCCNC(=N)N)C(=O)N[C@@H](CCC(=O)O)C(=O)N[C@@H](CCCCN)C(N)=O)NC(=O)[C@H](Cc2ccccc2)NC(=O)[C@H](CCCNC(=N)N)NC(=O)[C@H](C)NC(=O)[C@H](CCCCN)NC(=O)[C@H](Cc2ccc(O)cc2)NC(=O)[C@H]([C@@H](C)CC)NC1=O` (stereo partly shown) [A-UBI-SAHN D306-Q313] (Ac-C(Succinimide(1-Et,3-yl))RQIKIWFQNRRMKWKKLKAQA[R8]IYKARF[S5]AERHAREK-NH2; staple 23-30): in the series on 70Z3-C3 cells, the “intracellular delivery at 4° C. lower than at 37° C.” value was 58%. Further, the “more potent than ML120B” value in series [1] (HLY1) came to 70 ×. Also, the cell death in series [1] is reported as 100%. For the same compound, the “times more potent than ML120B IKKβ inhibitor” value in series [2] (OCI-Ly3) is “about 50 times”. In addition, in series [2] (OCI-Ly3, 7 h), the EC50 (commonly the concentration giving half of the maximal effect) amounted to 2.6 ± 0.5 µM and the cell death was found to be 100%. The “cell death, in words” value in the series with OCI-Ly7 (GCB-DLBCL) was “no cell death”.

As for `COCCOc1nc(-c2ccc(Cl)c(Cl)c2)n(-c2ccc(NC(=O)CCl)cc2)n1` [MI-2], in series [1], the cell death result is “more resistant”. Also, the EC50 in series [2] (OCI-Ly3, 7 h) was found to be 2.5 ± 0.05 µM.

On to `CN1C(=O)C(Cc2c[nH]c3ccccc23)NC1=S` (stereo not shown) [Nec1, necrostatin-1], for which the “protection to cell death induced by NEMO stapled inhibitor, in words” value in the series on OCI-Ly3 DLBCL cells was “totally prevent”.

Consider `COc1nccnc1NS(=O)(=O)c1ccc(NC(=O)/C=C/c2ccc([N+](=O)[O-])s2)cc1` [NSA, necrosulfonamide], for which the “protection to cell death induced by NEMO stapled inhibitor, in words” value in the series with OCI-Ly3 DLBCL cells is reported as “significantly rescued”.

For the compound “Z-Val-Arg-Pro-Arg-fluoromethylketone ({code Z}-VRPR-CH2F; reading uncertain; also: printed as Z-Val-Arg-Pro-Arg-fluoromethylketone) [Z-VRPR-fmk]”, the “cell death, in words” value in series [1] (HLY1, for at least 48 h) is recorded as “did not induce any cell death”. Also, the cell death entry in series [2] (OCI-Ly3, 48 h) is “very little cell death”.

With `COc1c(Cl)cc2c([nH]c3cnccc32)c1NC(=O)c1cccnc1C` [MLN120B], the cell death result is on record as “No cell death” in series [1] and 52% in series [2] (OCI-Ly3, 48 h). Besides, the EC50 came to 70 ± 2 µM in series [1] (HLY1, 24 h); 78 ± 2 µM in series [1] (HLY1, 48 h); 125 ± 10 µM in series [2] (Homo sapiens, OCI-Ly3, 48 h).

In turn, `CC[C@H](C)[C@H](NC(=O)[C@H](CC(=O)O)NC(=O)C(C)(C)NC(=O)[C@H](CCC(N)=O)NC(=O)C(C)(C)NC(=O)[C@H](CCCCN)NC(=O)[C@H](CC(C)C)NC(=O)[C@H](CSC1CC(=O)N(CC)C1=O)NC(C)=O)C(=O)N[C@@H](Cc1ccc(O)cc1)C(=O)N[C@@H](CCCCN)C(=O)NC(C)(C)C(=O)N[C@@H](CCCNC(=N)N)C(=O)N[C@@H](Cc1ccccc1)C(=O)N[C@@H](CCC(N)=O)C(=O)NC(C)(C)C(=O)N[C@@H](CCC(=O)O)C(=O)N[C@@H](CCCNC(=N)N)C(=O)N[C@@H](Cc1c[nH]cn1)C(=O)NC(C)(C)C(=O)N[C@@H](CCCNC(=N)N)C(=O)N[C@@H](CCC(=O)O)C(=O)N[C@@H](CCCCN)C(N)=O` (stereo partly shown) (Ac-C(Succinimide(1-Et,3-yl))LK[Aib]Q[Aib]DIYK[Aib]RFQ[Aib]ERH[Aib]REK-NH2) returned a helicity in “circular dichroism” of 49 rel %.

With `CC(C)S(=O)(=O)c1ccc2nccc(Nc3ccc4scnc4c3)c2c1` [GSK872], in the series on OCI-Ly3 DLBCL cells, the “protection to cell death induced by NEMO stapled inhibitor, in words” value is “significantly rescued”.

As for `CC[C@H](C)[C@H](NC(=O)[C@H](CC(=O)O)NC(=O)[C@H](C)NC(=O)[C@H](CCC(N)=O)NC(=O)[C@H](C)NC(=O)[C@H](CCCCN)NC(=O)[C@H](CC(C)C)NC(=O)[C@H](CSC1CC(=O)N(CC)C1=O)NC(C)=O)C(=O)N[C@@H](Cc1ccc(O)cc1)C(=O)N[C@@H](CCCCN)C(=O)N[C@@]1(C)CCCC=CCCC[C@@](C)(C(=O)N[C@@H](CCC(=O)O)C(=O)N[C@@H](CCCNC(=N)N)C(=O)N[C@@H](Cc2c[nH]cn2)C(=O)N[C@@H](C)C(=O)N[C@@H](CCCNC(=N)N)C(=O)N[C@@H](CCC(=O)O)C(=O)N[C@@H](CCCCN)C(N)=O)NC(=O)[C@H](CCC(N)=O)NC(=O)[C@H](Cc2ccccc2)NC(=O)[C@H](CCCNC(=N)N)NC1=O` (stereo partly shown) (Ac-C(Succinimide(1-Et,3-yl))LKAQADIYK[S5]RFQ[S5]ERHAREK-NH2; staple 11-15), the helicity in the series “circular dichroism” worked out at 65 rel %.

On to `NC(=O)Nc1sc(-c2ccc(F)cc2)cc1C(N)=O` [TPCA-1], for which, at IKKα, the IC50 – broadly, the point on the concentration scale where inhibition reaches its midpoint – is 0.4 µM. Moreover, in series [2] (OCI-Ly3, 7 h), the cell death entry is given as “no significant additional effect”.

As to `CC[C@H](C)[C@@H]1NC(=O)[C@H](CC(=O)O)NC(=O)[C@H](C)NC(=O)[C@H](CCC(N)=O)NC(=O)[C@](C)(NC(=O)[C@H](CCCCN)NC(=O)[C@H](CC(C)C)NC(=O)[C@H](CSC2CC(=O)N(CC)C2=O)NC(C)=O)CCCCCC/C=C/CCC[C@@](C)(C(=O)N[C@@H](CCCNC(=N)N)C(=O)N[C@@H](Cc2ccccc2)C(=O)N[C@@H](CCC(N)=O)C(=O)N[C@@H](C)C(=O)N[C@@H](CCC(=O)O)C(=O)N[C@@H](CCCNC(=N)N)C(=O)N[C@@H](Cc2c[nH]cn2)C(=O)N[C@@H](C)C(=O)N[C@@H](CCCNC(=N)N)C(=O)N[C@@H](CCC(=O)O)C(=O)N[C@@H](CCCCN)C(N)=O)NC(=O)[C@H](CCCCN)NC(=O)[C@H](Cc2ccc(O)cc2)NC1=O` (stereo partly shown) (Ac-C(Succinimide(1-Et,3-yl))LK[R8]QADIYK[S5]RFQAERHAREK-NH2; staple (E) 4-11), the helicity in the series “circular dichroism” was determined as 80 rel %.

Consider `COC(=O)C[C@H](NC(=O)[C@H](C)NC(=O)[C@@H](NC(=O)OCc1ccccc1)C(C)C)C(=O)CF` [Z-VAD-fmk] (Cbz-Val-Ala-Asp(OMe)-CH2F), for which the “protection to cell death induced by NEMO stapled inhibitor, in words” value in the series on OCI-Ly3 DLBCL cells is listed as “did not provide any protection”.

Source of the values: patent US11884708B2, “Stapled peptide inhibitors of nemo as potential anti-inflammatory and anti-cancer drugs” (INSTITUT PASTEUR, priority 2015, dated 2024).
